Results: patent US7446117B2, “Cox-2 inhibiting pyridine derivatives” (Glaxo Group Limited, priority 2002, dated 2008)

Target: T1, microsomal h-COX2 (Homo sapiens, UniProt P35354)
T1 construct: made in house; host or cells: baculovirus infected SF9 cells (microsomal preparation)
T1 sequence (P35354 18-604): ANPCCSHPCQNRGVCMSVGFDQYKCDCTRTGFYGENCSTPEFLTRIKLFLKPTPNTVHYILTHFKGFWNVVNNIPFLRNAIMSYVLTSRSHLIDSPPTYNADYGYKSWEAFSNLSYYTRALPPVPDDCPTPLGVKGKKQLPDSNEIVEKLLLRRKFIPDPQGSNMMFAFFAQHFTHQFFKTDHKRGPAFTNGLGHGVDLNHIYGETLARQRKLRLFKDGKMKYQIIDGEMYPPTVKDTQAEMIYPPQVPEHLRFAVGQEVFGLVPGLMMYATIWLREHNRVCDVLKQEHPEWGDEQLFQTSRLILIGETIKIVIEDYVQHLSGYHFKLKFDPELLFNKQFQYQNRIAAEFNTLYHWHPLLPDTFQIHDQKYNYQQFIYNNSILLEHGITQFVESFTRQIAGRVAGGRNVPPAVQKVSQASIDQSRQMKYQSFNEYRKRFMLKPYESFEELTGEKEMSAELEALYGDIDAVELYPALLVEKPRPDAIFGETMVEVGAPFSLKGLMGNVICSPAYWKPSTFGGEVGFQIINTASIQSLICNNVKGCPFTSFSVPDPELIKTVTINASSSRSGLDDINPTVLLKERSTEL
Assay: Microsomal assay: inhibitory activity against microsomal h-COX2
Assay type: biochemical
Details: microsomal preparation from baculovirus infected SF9 cells; 1 hour incubation with compound; 0.1 μM arachidonic acid, 10 minutes; PGE2 by EIA; read-out: IC50 values for inhibition of COX-2
Experimental: Biological Data Microsomal Assay
Inhibitory activity against microsomal h-COX2 was assessed against a microsomal preparation from baculovirus infected SF9 cells. An aliquot of microsomal preparation was thawed slowly on ice and a 1/40,000 dilution prepared from it into the assay buffer (sterile water, degassed with argon containing 100 mM HEPES (pH 7.4), 10 mM EDTA (pH7.4), 1 mM phenol, 1 mM reduced glutathione, 20 mg/ml gelatin and 0.001 mM Hematin). Once diluted the enzyme solution was then sonicated for 5 seconds (Branson sonicator, setting 4, 1 cm tip) to ensure a homogeneous suspension. 155 μl enzyme solution was then added to each well of a 96-well microtitre plate containing either 5 μl test compound (40× required test concentration) or 5 μl DMSO for controls. Plates were then mixed and incubated at room temperature for 1 hour. Following the incubation period, 40 μl of 0.5 μM arachidonic acid was added to each well to give a final concentration of 0.1 μM. Plates were then mixed and incubated for exactly 10 minutes (room temperature) prior to addition of 25 μl 1M HCl (hydrochloric acid) to each well to stop the reaction. 25 μl of 1M NaOH (sodium hydroxide) was then added to each well to neutralise the solution prior to determination of PGE2 levels by enzyme immunoassay (EIA).

| SMILES | IC50 |
| --- | --- |
| Cc1cc(NC2CCCC2)nc(-c2ccc(S(C)(=O)=O)cc2)c1 [Example 1, N-Cyclopentyl-4-methyl-6-[4-(methylsulfonyl)phenyl]pyridine-2-amine] | ≤ 500 nM |
| Cc1cc(OCc2ccccc2)nc(-c2ccc(S(C)(=O)=O)cc2)c1 [Example 2, 2-Benzyloxy-4-methyl-6-[4-(methylsulfonyl)phenyl]pyridine] | ≤ 500 nM |
| Cc1cc(-c2ccc(S(C)(=O)=O)cc2)nc(N(C)Cc2ccccc2)c1 [Example 3, N-Benzyl-N-methyl-4-methyl-6-[4-(methylsulfonyl)phenyl]pyridine-2-amine] | ≤ 500 nM |
| Cc1cc(NCc2ccc(Cl)cc2)nc(-c2ccc(S(C)(=O)=O)cc2)c1 [Example 4] | ≤ 500 nM |
| CN(Cc1ccccc1)c1cc(C(F)(F)F)cc(-c2ccc(S(C)(=O)=O)cc2)n1 [Example 5] | ≤ 500 nM |
| CS(=O)(=O)c1ccc(-c2cc(C(F)(F)F)cc(NCc3ccco3)n2)cc1 [Example 6] | ≤ 500 nM |
| Cc1cc(NCc2ccccc2)nc(-c2ccc(S(C)(=O)=O)cc2)c1 [Example 7] | ≤ 500 nM |
| CS(=O)(=O)c1ccc(-c2cc(C(F)(F)F)cc(NCC3CCCCC3)n2)cc1 [Example 8] | ≤ 500 nM |
| COc1ccc(Nc2cc(C)cc(-c3ccc(S(C)(=O)=O)cc3)n2)cc1 [Example 9] | ≤ 500 nM |
| Cc1cc(OCC(C)C)nc(-c2ccc(S(C)(=O)=O)cc2)c1 [Example 10] | ≤ 500 nM |
| Cc1cc(Oc2cccnc2)nc(-c2ccc(S(C)(=O)=O)cc2)c1 [Example 11] | ≤ 500 nM |
| C=CCNc1cc(C(F)(F)F)cc(-c2ccc(S(C)(=O)=O)cc2)n1 [Example 12] | ≤ 500 nM |
| Cc1cc(Nc2ccccc2Cl)nc(-c2ccc(S(C)(=O)=O)cc2)c1 [Example 13] | ≤ 500 nM |
| Cc1cc(NCc2cc(F)cc(F)c2)nc(-c2ccc(S(C)(=O)=O)cc2)c1 [Example 14] | ≤ 500 nM |
| Cc1cc(NCc2cccnc2)nc(-c2ccc(S(C)(=O)=O)cc2)c1 [Example 15] | ≤ 500 nM |
| COc1ccc(Nc2cc(C(F)(F)F)cc(-c3ccc(S(C)(=O)=O)cc3)n2)cc1 [Example 16] | ≤ 500 nM |
| Cc1cc(NC2CCCCC2)nc(-c2ccc(S(C)(=O)=O)cc2)c1 [Example 17] | ≤ 500 nM |
| CCCCNc1cc(C(F)(F)F)cc(-c2ccc(S(C)(=O)=O)cc2)n1 [Example 18] | ≤ 500 nM |
| CC(C)CNc1cc(C(F)(F)F)cc(-c2ccc(S(C)(=O)=O)cc2)n1 [Example 19] | ≤ 500 nM |

| SMILES | IC50 |
| --- | --- |
| COc1ccc(CNc2cc(C)cc(-c3ccc(S(C)(=O)=O)cc3)n2)cc1 [Example 20] | ≤ 500 nM |
| Cc1cc(NCc2ccc(F)cc2)nc(-c2ccc(S(C)(=O)=O)cc2)c1 [Example 21] | ≤ 500 nM |
| Cc1ccc(CNc2cc(C(F)(F)F)cc(-c3ccc(S(C)(=O)=O)cc3)n2)o1 [Example 22] | ≤ 500 nM |
| CCCCNc1cc(C)cc(-c2ccc(S(C)(=O)=O)cc2)n1 [Example 23] | ≤ 500 nM |
| Cc1cc(NCc2ccco2)nc(-c2ccc(S(C)(=O)=O)cc2)c1 [Example 24] | ≤ 500 nM |
| Cc1ccc(CNc2cc(C)cc(-c3ccc(S(C)(=O)=O)cc3)n2)cc1 [Example 25] | ≤ 500 nM |
| CS(=O)(=O)c1ccc(-c2cc(C(F)(F)F)cc(NC3CCCC3)n2)cc1 [Example 26] | ≤ 500 nM |
| Cc1cc(NCc2ccncc2)nc(-c2ccc(S(C)(=O)=O)cc2)c1 [Example 27] | ≤ 500 nM |
| Cc1cc(NCc2ccccn2)nc(-c2ccc(S(C)(=O)=O)cc2)c1 [Example 28] | ≤ 500 nM |
| CCOc1ccc(CNc2cc(C)cc(-c3ccc(S(C)(=O)=O)cc3)n2)cc1 [Example 30] | ≤ 500 nM |
| Cc1cc(NCC(C)C)nc(-c2ccc(S(C)(=O)=O)cc2)c1 [Example 31] | ≤ 500 nM |
| Cc1cc(Nc2ccc(F)cc2)nc(-c2ccc(S(C)(=O)=O)cc2)c1 [Example 43] | ≤ 500 nM |
| Cc1cc(NCc2cccs2)nc(-c2ccc(S(C)(=O)=O)cc2)c1 [Example 44] | ≤ 500 nM |
| CCc1cc(-c2ccc(S(C)(=O)=O)cc2)nc(N(C)Cc2ccccc2)c1 [Example 45] | ≤ 500 nM |
| CCc1cc(NCC2CCOCC2)nc(-c2ccc(S(C)(=O)=O)cc2)c1 [Example 46] | ≤ 500 nM |
| CCc1cc(NCC(C)C)nc(-c2ccc(S(C)(=O)=O)cc2)c1 [Example 47] | ≤ 500 nM |
| Cc1ccc(CNc2cc(C(F)(F)F)cc(-c3ccc(S(C)(=O)=O)cc3)n2)cc1 [Example 48] | ≤ 500 nM |
| Cc1ccccc1CNc1cc(C(F)(F)F)cc(-c2ccc(S(C)(=O)=O)cc2)n1 [Example 49] | ≤ 500 nM |
| CS(=O)(=O)c1ccc(-c2cc(C(F)(F)F)cc(NCc3ccccc3Cl)n2)cc1 [Example 50] | ≤ 500 nM |

Second part, the compound after the results:

| IC50 | SMILES |
| --- | --- |
| ≤ 500 nM | Cc1cnc(CNc2cc(C(F)(F)F)cc(-c3ccc(S(C)(=O)=O)cc3)n2)cn1 [Example 51] |
| ≤ 500 nM | C[C@H](Nc1cc(C(F)(F)F)cc(-c2ccc(S(C)(=O)=O)cc2)n1)c1ccccc1 [Example 52] |
| ≤ 500 nM | C[C@@H](Nc1cc(C(F)(F)F)cc(-c2ccc(S(C)(=O)=O)cc2)n1)c1ccccc1 [Example 53] |
| ≤ 500 nM | CS(=O)(=O)c1ccc(-c2cc(C(F)(F)F)cc(NC3CCCCC3)n2)cc1 [Example 54, N-cyclohexyl-4-(trifluoromethyl)-6-[4-(methylsulfonyl)phenyl]pyridine-2-amine] |
| ≤ 500 nM | COc1ccc(CNc2cc(C(F)(F)F)cc(-c3ccc(S(C)(=O)=O)cc3)n2)cc1 [Example 55] |
| ≤ 500 nM | Cc1cc(Nc2ccc(C)nc2)nc(-c2ccc(S(C)(=O)=O)cc2)c1 [Example 56] |
| ≤ 500 nM | Cc1ccc(-c2ccc(S(C)(=O)=O)cc2)nc1NCc1ccccc1 [Example 57] |
| ≤ 500 nM | Cc1cc(-c2ccc(S(C)(=O)=O)cc2)nc(N(C)Cc2ccccc2)c1C [Example 58] |
| ≤ 500 nM | Cc1cc(-c2ccc(S(C)(=O)=O)cc2)nc(NCc2ccccc2)c1C [Example 59] |
| ≤ 500 nM | Cc1cc(-c2ccc(S(C)(=O)=O)cc2)nc(NCC(C)C)c1C [Example 60] |
| ≤ 500 nM | CN(Cc1ccccc1)c1cccc(-c2ccc(S(C)(=O)=O)cc2)n1 [Example 61] |
| ≤ 500 nM | Cc1cc(-c2ccc(S(C)(=O)=O)cn2)nc(N(C)Cc2ccccc2)c1 [Example 62] |
| ≤ 500 nM | Cc1cc(-c2ccc(S(C)(=O)=O)cc2)nc(N2CCCCC2)c1C [Example 66] |
| ≤ 500 nM | Cc1cc(NCc2ccccc2)nc(-c2ccc(S(C)(=O)=O)c(F)c2)c1 [Example 67] |
| ≤ 500 nM | Cc1cc(-c2ccc(S(C)(=O)=O)cc2)nc(N(C)Cc2cccc(C)n2)c1 [Example 68] |
| ≤ 500 nM | CCc1cc(NCc2ccco2)nc(-c2ccc(S(C)(=O)=O)cc2)c1 [Example 69] |
| ≤ 500 nM | COc1ccc(Nc2cc(C)cc(-c3ccc(S(C)(=O)=O)cn3)n2)cc1 [Example 70] |
| ≤ 500 nM | CCC(CC)Nc1cc(C)cc(-c2ccc(S(C)(=O)=O)cc2)n1 [Example 74] |
| ≤ 500 nM | CS(=O)(=O)c1ccc(-c2cccc(NCc3ccccc3)n2)cc1 [Example 75] |
| ≤ 500 nM | Cc1cc(NCc2ncc[nH]2)nc(-c2ccc(S(C)(=O)=O)cc2)c1 [Example 76] |
| ≤ 500 nM | Cc1cc(NCc2nccn2C)nc(-c2ccc(S(C)(=O)=O)cc2)c1 [Example 80] |
| ≤ 500 nM | Cc1cc(NCc2c[nH]nc2C)nc(-c2ccc(S(C)(=O)=O)cc2)c1 [Example 81] |
| ≤ 500 nM | Cc1cc(NCc2ccn(C)n2)nc(-c2ccc(S(C)(=O)=O)cc2)c1 [Example 82] |
| ≤ 500 nM | Cc1cc(NCc2cnn(C)c2)nc(-c2ccc(S(C)(=O)=O)cc2)c1 [Example 83, N-[(1-methyl-1H-pyrazol-4-yl)methyl]-4-methyl-6-[4-(methylsulfonyl)phenyl]pyridine-2-amine] |
| ≤ 500 nM | CCc1cc(NCc2ncc[nH]2)nc(-c2ccc(S(C)(=O)=O)cc2)c1 [Example 84] |
| ≤ 500 nM | Cc1cc(OCc2cc(C)n[nH]2)nc(-c2ccc(S(C)(=O)=O)cc2)c1 [Example 85] |
| ≤ 500 nM | Cc1cc(OCc2ccnn2C)nc(-c2ccc(S(C)(=O)=O)cc2)c1 [Example 86] |
| ≤ 500 nM | Cc1cc(NCc2ncnn2C)nc(-c2ccc(S(C)(=O)=O)cc2)c1 [Example 87] |
| ≤ 500 nM | Cc1cc(OCc2cc(C)on2)nc(-c2ccc(S(C)(=O)=O)cc2)c1 [Example 88] |
